# Results reported in US7939569B1, “Aniline analogs as glycogen synthase activators” (Hoffmann-La Roche Inc., priority 2009, dated 2011).
# System: glycogen synthase
# Test: Glycogen Synthase (GS) Assay
# Type: biochemical
# Details: for EC50: compound concentration needed to give 50% maximum activation; for GS SC200: compound concentration needed to stimulate 200% of the enzyme activity
# Description: Twelve μL per well of substrate solution containing glycogen (4.32 mg/'ml), 2.67 mM UDP-glucose, 21.6 mM phospho(enol)pyruvate and 2.7 mM NADH in 30 mM glycylglycine, pH 7.3 buffer was added into a polystyrene 384-well assay plate (BD Biosciences).
# Compound solutions (8 μL/well) at various concentrations (0-300 μM) were added to the assay plate (columns 5-24). Compound solution contains 30 mM glycylglycine, pH 7.3, 40 mM KCl, 20 mM MgCl2, 9.2% DMSO, with (columns 15-24) or without (columns 5-14) 20 mM glucose 6-phosphate.
# Enzyme solution (12 μL/well) containing glycogen synthase (16.88 μg/ml), pyruvate kinase (0.27 mg/ml), lactate dehydrogenase (0.27 mg/ml) in 50 mM Tris-HCl, pH 8.0, 27 mM DTT and bovine serum albumin (BSA, 0.2 mg/ml) was added to the assay plate (columns 3-24). As a blank control, enzyme solution without glycogen synthase was added into the top half wells of columns 1-2. To the bottom half wells of columns 1-2 were added a known activator, glucose 6-phosphate (at final concentration 5 mM) in addition to the enzyme solution. The reaction mixture was incubated at room temperature. The assay plate was then read for absorbance at 340 nm on an Envision reader every 3 minutes up to a total of 15 minutes.
# The enzyme activity (with or without compound) was calculated by the reaction rate and represented by the optical density change (SOD) per minute. Percent stimulation of glycogen synthase activity by a compound at various concentrations was calculated by the following formula: % stimulation=100*Rs/Rt, Where Rs is the reaction rate of the enzyme in the presence of compound and Rt is the reaction rate of the enzyme in the absence of compound.
# SC200 is defined as the compound concentration that is needed to stimulate 200% of the enzyme activity. EC50 is defined as the compound concentration that is needed to give 50% maximum activation.
EC50,SMILES,GS SC200
5.93 µM,"O=C(Nc1cccc(COc2ccc(-c3ccc(F)cc3F)cc2)c1)[C@H]1CCC[C@H]1C(=O)O (racemic) [Example 2, (trans)-2-[3-(2′,4′-Difluoro-biphenyl-4-yloxymethyl)-phenylcarbamoyl]-cyclopentanecarboxylic acid]",3.24 µM
4.4 µM,"O=C(Nc1cccc(COc2ccc(-c3ccc(F)cc3F)cc2)c1)C1CCC[C@H]1C(=O)O (stereo in doubt) [Example 3, (1R,2R)-2-[3-(2′,4′-Difluoro-biphenyl-4-yloxymethyl)-phenylcarbamoyl]-cyclopentanecarboxylic acid]",1.3 µM
6.15 µM,"O=C(O)C1CCC[C@@H]1C(=O)Nc1cccc(COc2ccc(-c3ccc(F)cc3F)cc2)c1 (stereo in doubt) [Example 4, (1S,2S)-2-[3-(2′,4′-Difluoro-biphenyl-4-yloxymethyl)-phenylcarbamoyl]-cyclopentanecarboxylic acid]",2.09 µM
3.14 µM,"O=C(O)[C@H]1CCC[C@H]1C(=O)Nc1cccc(COc2ccc(-c3ccc(F)cc3F)cc2)c1 (stereo in doubt) [Example 6, (1S,2R)-2-[3-(2′,4′-Difluoro-biphenyl-4-yloxymethyl)-phenylcarbamoyl]-cyclopentanecarboxylic acid]",0.77 µM
6.96 µM,"O=C(O)CCC(=O)Nc1cccc(COc2ccc(-c3ccc(F)cc3F)cc2)c1 [Example 1, N-[3-(2′,4′-Difluoro-biphenyl-4-yloxymethyl)-phenyl]-succinamic acid]",2.69 µM
2.84 µM,"O=C(Nc1cccc(COc2ccc(-c3ccc(F)cc3F)cc2)c1)[C@H]1CCC[C@H]1C(=O)O [Example 5, (1R,2S)-2-[3-(2′,4′-Difluoro-biphenyl-4-yloxymethyl)-phenylcarbamoyl]-cyclopentanecarboxylic acid]",0.65 µM
3.71 µM,"COc1cc(F)c(F)cc1-c1ccc(OCc2cccc(N3CCC[C@H]3C(=O)O)c2)cc1 [Example 7, (S)-1-[3-(4′,5′-Difluoro-2′-methoxy-biphenyl-4-yloxymethyl)-phenyl]-pyrrolidine-2-carboxylic acid]",0.7 µM
6.37 µM,"COc1cc(F)c(F)cc1-c1ccc(OCc2cccc(N3CCC[C@H]3CC(=O)O)c2)cc1 [Example 8, {(S)-1-[3-(4′,5′-Difluoro-2′-methoxy-biphenyl-4-yloxymethyl)-phenyl]-pyrrolidin-2-yl}-acetic acid]",2.43 µM
1.02 µM,"COc1cc(F)c(F)cc1-c1ccc(OCc2cccc(N(CC(=O)O)C(C)=O)c2)cc1 [Example 9, {Acetyl-[3-(4′,5′-difluoro-2′-methoxy-biphenyl-4-yloxymethyl)-phenyl]-amino}-acetic acid]",0.33 µM
5.71 µM,"CS(=O)(=O)Nc1cccc(COc2ccc(-c3cc(F)c(F)cc3F)cc2)c1 [Example 10, N-[3-(2′,4′,5′-Trifluoro-biphenyl-4-yloxymethyl)-phenyl]-methanesulfonamide]",2.41 µM
2.75 µM,"COc1cc(F)c(F)cc1-c1ccc(OCc2cccc(NS(C)(=O)=O)c2)cc1 [Example 11, N-[3-(4′,5′-Difluoro-2′-methoxy-biphenyl-4-yloxymethyl)-phenyl]-methanesulfonamide]",1.1 µM
1.48 µM,"O=S(=O)(Nc1cccc(COc2ccc(-c3cc(F)c(F)cc3F)cc2)c1)C(F)(F)F [Example 12, C,C,C-Trifluoro-N-[3-(2′,4′,5′-trifluoro-biphenyl-4-yloxymethyl)-phenyl]methanesulfonamide]",0.95 µM
0.44 µM,"COc1cc(F)c(F)cc1-c1ccc(OCc2cccc(NS(=O)(=O)C(F)(F)F)c2)cc1 [Example 13, N-[3-(4′,5′-Difluoro-2′-methoxy-biphenyl-4-yloxymethyl)-phenyl]-C,C,C-trifluoromethanesulfonamide]",0.18 µM
